Data: US9938269B2, “Inhibitor compounds of phosphodiesterase type 10A” (ABBVIE INC., priority 2011, dated 2018)
Where a name gives a salt, the structure may show the parent alone.

Tests used:
[1] = Determination of the microsomal half-life, human liver microsomes; conditions: for microsomal CLint at 0.5 μM: human, liver microsomes, pH 7.4
[2] = Determination of the microsomal half-life, rat liver microsomes; conditions: for Rat mCl (mikrosomal clearance): rat liver microsomes, 0.5 μM test substance, 0.25 mg microsomal protein, pH 7.4, 37° C., NADPH; for microsomal CLint at 0.5 μM: rat, liver microsomes, pH 7.4

SMILES | Human mCl (mikrosomal clearance) ([1]; human liver microsomes, 0.5 μM test substance, 0.25 mg microsomal protein, pH 7.4, 37° C., NADPH) | Rat mCl (mikrosomal clearance) [2] | microsomal CLint at 0.5 μM [1] [µL/min/mg] | microsomal CLint at 0.5 μM [2] [µL/min/mg]
C[C@@H]1CN(c2cccc3c2C(=O)N(CCc2ccc4ccccc4n2)C3)CC[C@@H]1c1ccc(OC(F)(F)F)cc1F.O=C(O)C(F)(F)F [Example 147, 7-[(3S,4S)-4-(2-Fluoro-4-trifluoromethoxy-phenyl)-3-methyl-piperidin-1-yl]-2-(2-quinolin-2-yl-ethyl)-2,3-dihydro-isoindol-1-one trifluororacetate] | ∘ (∘ not avialable or >220 μl min^−1 mg^−1) | + (+: 100-220 μl min^−1 mg^−1) | – | –
CN1CC2CN(c3cccc4c3C(=O)N(CCc3ccc5ccccc5n3)C4)CC2C1 (stereo not drawn) [Example 154, 7-(5-Methyl-hexahydro-pyrrolo[3,4-c]pyrrol-2-yl)-2-(2-quinolin-2-yl-ethyl)-2,3-dihydro-isoindol-1-one] | – | −∘ | < 100 | –
CC1(O)CCC(Nc2ccc(-c3cccc4c3C(=O)N(CCc3ccc5ccccc5n3)C4)cc2Cl)CC1 (stereo not drawn) [Example 155, 7-[3-Chloro-4-(4-hydroxy-4-methyl-cyclohexylamino)-phenyl]-2-(2-quinolin-2-yl-ethyl)-2,3-dihydro-isoindol-1-one hydrochloride] | – | – | > 220 | 100 to 220
CCN1CCN(C2CCN(c3cccc4c3C(=O)N(CCc3ccc5ccccc5n3)C4)CC2)CC1 [Example 157, 7-[4-(4-Ethyl-piperazin-1-yl)-piperidin-1-yl]-2-(2-quinolin-2-yl-ethyl)-2,3-dihydro-isoindol-1-one trifluoroacetate] | – | – | > 220 | < 100
O=C1c2c(cccc2N2CCN(c3cccnc3)CC2)CN1CCc1ccc2ccccc2n1 [Example 159, 7-(4-Pyridin-3-yl-piperazin-1-yl)-2-(2-quinolin-2-yl-ethyl)-2,3-dihydro-isoindol-1-one trifluoroacetate] | – | – | > 220 | 100 to 220
CN1CCN(Cc2ccc(-c3cccc4c3C(=O)N(CCc3ccc5ccccc5n3)C4)cc2)CC1 [Example 167, 7-[4-(4-Methyl-piperazin-1-ylmethyl)-phenyl]-2-(2-quinolin-2-yl-ethyl)-2,3-dihydro-isoindol-1-one trifluoroacetate] | – | – | > 220 | 100 to 220
Cc1ccc(COc2cccc3c2C(=O)N(CCc2ccc4ccccc4n2)C3)cn1 [Example 172, 7-(6-Methyl-pyridin-3-ylmethoxy)-2-(2-quinolin-2-yl-ethyl)-2,3-dihydro-isoindol-1-one] | – | – | 100 to 220 | 100 to 220
CC1CCN(c2cccc3c2C(=O)N(CCc2ccc4ccccc4n2)C3)CC1N (stereo not drawn) [Example 174, 7-(3-Amino-4-methyl-piperidin-1-yl)-2-(2-quinolin-2-yl-ethyl)-2,3-dihydro-isoindol-1-one] | – | – | < 100 | 100 to 220
CN1CCN(Cc2cccc3c2C(=O)N(CCc2ccc4ccccc4n2)C3)CC1 [Example 177, 7-(4-Methyl-piperazin-1-ylmethyl)-2-(2-quinolin-2-yl-ethyl)-2,3-dihydro-isoindol-1-one] | – | – | < 100 | < 100
O=C1c2c(cccc2N2CC3CNCC3C2)CN1CCc1ccc2ccccc2n1 (stereo not drawn) [Example 192, 7-(Hexahydro-pyrrolo[3,4-c]pyrrol-2-yl)-2-(2-quinolin-2-yl-ethyl)-2,3-dihydro-isoindol-1-one] | – | – | < 100 | > 220
Cn1nccc1-c1ccnc2c1C(=O)N(CCc1nc3ccccn3n1)C2 [Example 213, 4-(2-Methyl-2H-pyrazol-3-yl)-6-(2-[1,2,4]triazolo[1,5-a]pyridin-2-yl-ethyl)-6,7-dihydro-pyrrolo[3,4-b]pyridin-5-one trifluoroacetate] | – | – | < 100 | < 100
O=C1c2c(cccc2N2CC[C@@H]3NCC[C@@H]3C2)CN1CCc1ccc2ccccc2n1 [Example 220, 7-(3aR,7aS)-Octahydro-pyrrolo[3,2-c]pyridin-5-yl-2-(2-quinolin-2-yl-ethyl)-2,3-dihydro-isoindol-1-one trifluoroacetate] | – | – | 100 to 220 | > 220
